Test results published in patent US20180119105A1, “METHOD FOR PRODUCTION OF INSULIN-PRODUCING CELLS” (University of Copenhagen, priority 2015, published 2018).

Experiments:
[1] = test system: hES cell derived pancreatic progenitors (PDX1-eGFP); experiment: Immunostaining (C-peptide, Glucagon, GFP) of hES cell derived pancreatic progenitors treated with verteporfin for 5 days; format: cell-based, human
Excerpt: FIG. 7: Treating hES cell derived pancreatic progenitors with verteporfin for 5 days leads to enhanced insulin expression. Stable PDX1-eGFP human ES cells were differentiated to pancreatic progenitor stage and treated with either DMSO (controls) or Verteporfin for 5 days and immuno stained with C-peptide (white), Glucagon (dark grey) and GFP PDX1 (light grey). Verteporfin-treated progenitors show enhanced endocrine/beta cell differentiation and express higher levels of C-peptide, whereas DMSO treated cells express low levels of C-peptide and Glucagon.
(§1) The verteporfin treatment directed the pancreatic progenitors to endocrine lineage differentiation at the expense of acinar lineage.

[2] = test system: hES cell derived pancreatic progenitors (PDX1 eGFP); experiment: qRT PCR analysis of hES cell derived pancreatic progenitors treated with verteporfin for 5 days; format: cell-based, human; details: verteporfin 5 days
Procedure: FIG. 6: Treatment with verteporfin for 5 days leads to enhanced expression of islet specific genes. […] Expression of NKX6.1 is not altered, as it is expressed in both pancreatic progenitors and mature beta-cells. […]
(§2) We cultured the hES PDX1 GFP cells using a modified protocol from Rezania et al 2010 (see below for the exact protocol, outlined in FIG. 5A) that efficiently generates pancreatic progenitors mostly expressing PDX1, NKX6.1. Briefly, Hues4 hES PDX1 GFP cells were cultured on feeder-free DEF system (““DEF-CS™”, Cellectis stem cells, Cellartis AB”) until full confluency. When full confluency was reached the cells were subjected to differentiation as follows for 5 different stages to obtain insulin producing mature Beta cells.
(§3) Cells were cultured in RPMI medium with 3 μM CHIR99021 (a Wnt activator) for 1 day. During the second day the cells were treated with 100 ng/ml Activin A. For days 3 and 4 the cells were treated with 100 ng/ml Activin A along with 2% (v/v) B27.
(§4) The cultures were exposed to F12 media containing 2% B27, 2 gm/L Sodium bicarbonate along with 0.25 mM Vitamin C and 50 ng/ml FGF7 for two days.
(§5) The cultures were continued for four days in DMEM high glucose media along with 2% B27, 2 g/L Sodium bicarbonate, 0.25 mM Vitamin C, 2 ng/ml FGF7, 0.25 μM Sant1, 100 ng/ml Noggin and 2 μM Retinoic acid.
(§6) Stage 4 cells were cultured for 5 days to obtain PDX1 and NKX6.1 expressing pancreatic progenitor cells by culturing in 2% B27, 2 gm/L Sodium bicarbonate, 0.25 mM Vitamin C, 100 ng/ml Noggin and 500 nM TPB (PKC activator).
(§7) To obtain insulin expressing, MAFA positive mature Beta cells, the cultures were treated with the YAP-TEAD inhibitor Verteporfin at a concentration of 1 μg/ml in Stage 4 medium and cultured for another 4-9 days.
(§8) After culturing the cells for the first 4 stages above (around 15 days), the differentiated hES cells were enriched for PDX1 expression as they expressed GFP. These enriched pancreatic progenitor cultures were treated with the YAP1 -TEAD chemical inhibitor Verteporfin for an additional 4-5 days and checked for gene expression (stage 5). As expected from mouse studies, inhibition of YAP1 activity in the PDX1 enriched cells, using verteporfin after 4 days led to efficient and enhanced endocrine differentiation especially towards insulin producing beta cells at the expense of acinar lineage.
as §1

[3] = test system: Wild type C57bl6 mouse pancreatic explants at E11.5; experiment: RT-qPCR of endocrine gene expression in mouse pancreatic explants cultured ex-vivo with Verteporfin; format: cell-based; details: 1 μg/ml Verteporfin for 72 hours; RT-qPCR after 6 days of culture; fold change relative to Ecad expression
Procedure: FIG. 4: Inhibition of Yap1 using Verteporfin in wild type mouse pancreatic explants leads to enhanced endocrine differentiation. Wild type C57bl6 mouse pancreatic explants at E11.5 embryonic stages were cultured ex-vivo for initial 24 hrs in normal culture media supplemented with 1 ug/ml Verteporfin for 72 hours and again in normal culture media without Verteporfin for another 48 hours. The explants were analyzed by RT-qPCR for endocrine gene expression after 6 days of culture. […] This ultimately leads to enhanced endocrine differentiation as analysed for Insulin (E) and Glucagon (F) expression. Y axis: relative expression (fold change relative to Ecad expression).
Wild type C57bl6 mouse pancreatic explants at E11.5 embryonic stages were cultured ex-vivo for initial 24 hours in normal culture media supplemented with 1 μg/ml Verteporfin for 72 hours and again in normal culture media without Verteporfin for another 48 hours. The explants were analyzed by RT-qPCR for endocrine gene expression after 6 days of culture. […] Expression of these genes is characteristic of islet cell fate.

[4] = test system: Stable Pdx1 Gfp human ES cells differentiated to pancreatic progenitor stage; experiment: Immunostaining (c-peptide, Neurogenin3) with confocal microscopy of hES cell derived pancreatic progenitors treated with VP for 5 days; format: cell-based; details: VP 1 μg/ml, compared to DMSO treated cells
Procedure: FIG. 8: hES cell derived pancreatic progenitors treated with VP for 5 days show enhanced endocrine differentiation & Insulin expression. Stable Pdx1 Gfp human ES cells were differentiated to pancreatic progenitor stage and then treated with either DMSO (control) or Verteporfin (VP, 1 μg/ml) for 5 additional days. Cultures were immuno-stained with c-peptide (light grey) and Neurogenin3 (dark grey) antibodies and imaged using confocal microscope.
Stable Pdx1 Gfp human ES cells were differentiated to pancreatic progenitor stage and then treated with either DMSO (control) or Verteporfin (VP, 1 μg/ml) for 5 additional days. Cultures were immuno-stained with c-peptide and Neurogenin3 antibodies and imaged using confocal microscopy (FIG. 8).

[5] = test system: hES cell derived pancreatic progenitors (PDX1 eGFP); experiment: qRT PCR analysis of hES cell derived pancreatic progenitors treated with verteporfin for 4 days; format: cell-based, human; details: 1 μg/ml verteporfin, compared to DMSO treated control cultures
Procedure: FIG. 5: Inhibition of YAP1 in hES cell derived pancreatic progenitors leads to β-cell differentiation. (A) Outline of the 15 day protocol (modified from Rezania et al, 2010) used to generate pancreatic progenitors from human ES cells. At the end of the protocol the majority of cells express the progenitor markers PDX1 and NKX6.1. The YAP1-TEAD inhibitor Verteporfin (VP) was added to the medium during PE day 4 and the cells were treated for either 4 or 5 days. […] Y axis: relative mRNA expression as fold change.
as §2, §3, §4, §5, §6, §7, §8

[6] = verteporfin 5 days vs DMSO, immunostaining
[7] = fold-change versus DMSO control

## Verteporfin
[1]; verteporfin 5 days
  MAFA status of Insulin expressing cells: positive for MAFA
[1]; [6]
  Glucagon protein expression: enhanced
  insulin (c-peptide) protein expression: enhanced
[2]; compared to DMSO control cultures
  insulin mRNA levels up-regulated: 5 fold
[2]; compared to day 4 cultures
  INSM1 mRNA expression: up-regulation
  ISL1 mRNA expression: up-regulation
  MAFA mRNA expression: up-regulation
[2]; [7]
  CPA1 mRNA expression (exocrine gene): down-regulation
  Glucagon mRNA expression: down-regulation
  MAFB mRNA expression: up-regulation
  NKX6.1 mRNA expression: not altered
  Neurogenin3 (NGN3) mRNA expression: up-regulation
  PTF1a mRNA expression (exocrine gene): down-regulation
[3]
  Arx expression: significant up-regulation
  Glucagon expression: increased expression
  Insm1 expression: significant up-regulation
  Insulin expression: increased expression
  NeuroD expression: significant up-regulation
  Neurogenin (Ngn3) expression: significant up-regulation
[4]
  Ngn3 level (immunostaining): higher levels
  c-peptide level (immunostaining): higher levels
[5]
  CPA1 mRNA expression (exocrine gene): down-regulated
  Glucagon mRNA expression: up-regulation
  ISL-1 mRNA expression: up-regulation
  Insulin mRNA expression: up-regulation
  MAFA mRNA expression: up-regulation
  MAFB mRNA expression: up-regulation
  PTF1a mRNA expression (exocrine gene): down-regulated
